According to PMC5464342 (Pharmacology Research & Perspectives, 2017):
Where two headings read alike, the source gives them in different places.

Tests used:
[1] = EXE metabolite identification in human liver microsomes by UPLC/MS/MS; format: in vitro ADME; conditions: 50 μg HLM, 400 μmol/L EXE, NADPH regeneration system, 37°C, 4 h; for identified as phase I EXE metabolite in incubations of EXE with pooled human liver microsomes: comparison to reference compounds
[2] = target: T1, wild type aromatase (CYP19A1*1) (Homo sapiens, UniProt P11511); assay: Anti-aromatase activity assay, estrone formation by UPLC/MS/MS, microsomes of HEK293 overexpressing wild type aromatase; format: biochemical
T1 sequence (P11511 1-503): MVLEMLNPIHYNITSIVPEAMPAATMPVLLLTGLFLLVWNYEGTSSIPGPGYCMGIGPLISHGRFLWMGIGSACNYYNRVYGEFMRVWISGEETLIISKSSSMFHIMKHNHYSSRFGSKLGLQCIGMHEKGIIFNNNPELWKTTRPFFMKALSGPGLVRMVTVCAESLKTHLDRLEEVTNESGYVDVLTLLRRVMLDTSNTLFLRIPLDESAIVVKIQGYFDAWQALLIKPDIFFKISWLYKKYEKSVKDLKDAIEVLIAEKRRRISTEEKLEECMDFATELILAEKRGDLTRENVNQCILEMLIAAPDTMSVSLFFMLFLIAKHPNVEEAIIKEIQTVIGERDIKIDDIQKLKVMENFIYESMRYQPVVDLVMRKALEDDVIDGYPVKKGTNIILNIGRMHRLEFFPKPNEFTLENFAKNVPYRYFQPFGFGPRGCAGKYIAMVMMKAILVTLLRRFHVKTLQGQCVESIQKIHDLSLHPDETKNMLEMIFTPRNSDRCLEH

[3] = tested on: aromatase; set-up: method as in Buzzetti et al. 1993; conditions: ref Buzzetti et al. 1993; cited from earlier work

Compound | identified as phase I EXE metabolite in incubations of EXE with pooled human liver microsomes [1] | IC50 [2] [µM] | further results
C[C@]12C=CC(=O)C=C1C(CO)=CC1C2CC[C@]2(C)C(=O)CCC12 (some centres unmarked) [6-hydroxymethylandrosta-1,4,6-triene-3,17-dione] | identified | 61 ± 20 | fold less potent than EXE (wild type aromatase) ([2]; ratio of IC50 values versus EXE): 67 fold
C[C@]12C=CC(=O)C=C1[C@@]1(CO1)CC1C2CC[C@]2(C)C(=O)CCC12 (stereo partly drawn) [6α-spirooxiranandrosta-1,4-diene-3,17-dione] |  | 1.2 ± 0.19 | fold more potency than its 6β stereoisomer (wild type aromatase) ([2]; ratio of IC50 values versus 6β-spirooxiranandrosta-1,4-diene-3,17-dione): ~5 fold
C[C@]12C=CC(=O)C=C1C(O)(CO)CC1C2CC[C@@]2(C)C1CC[C@@H]2O (stereo partly drawn) [6α/β,17β-dihydroxy-6α/β-hydroxymethylandrosta-1,4-diene-3-one] | identified | > 100 | 
C[C@]12C=CC(=O)C=C1C(O)(CO)CC1C2CC[C@]2(C)C(=O)CCC12 (stereo partly drawn) [6α/β-hydroxy-6α/β-hydroxymethylandrosta-1,4-diene-3,17-dione] | identified | > 100 | 
C[C@]12C=CC(=O)C=C1[C@]1(CO1)CC1C2CC[C@]2(C)C(=O)CCC12 (stereo partly drawn) [6β-spirooxiranandrosta-1,4-diene-3,17-dione] |  | 5.7 ± 1.6 | 
C=C1CC2C(CC[C@@]3(C)C2CC[C@@H]3O)[C@@]2(C)C=CC(=O)C=C12 (stereo partly drawn) [17β-dihydroexemestane] | identified |  | abundance of the EXE metabolite formed in human liver microsomes [1]: predominant EXE metabolite; fold less potent than EXE (earlier study) [3]: approximately 2.6 fold
C[C@]12CC[C@H]3[C@@H](C=C(CO)C4=CC(=O)C=C[C@@]43C)[C@@H]1CC[C@@H]2O [17β-hydroxy-6-hydroxymethylandrosta-1,4,6-triene-3-one] |  |  | IC50 ([2]; 15 μg HEK293 microsomes, 5 μmol/L androstenedione, NADPH regeneration system, 37°C, 2 h, read-out: IC50 for wild-type aromatase): > 100 µM
